The target in the assay is PDEδ (Homo sapiens, UniProt O43924). Description: SPR. It is filed as binding.

pKd: −log10 of the molar value.

Sequence of PDEδ (O43924 whole entry): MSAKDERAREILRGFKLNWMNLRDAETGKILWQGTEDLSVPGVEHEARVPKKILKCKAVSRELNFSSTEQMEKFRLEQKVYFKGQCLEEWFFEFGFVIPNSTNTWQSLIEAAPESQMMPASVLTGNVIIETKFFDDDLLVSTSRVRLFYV

What is called pKd is the negative decadic logarithm of the Kd, by convention in mol/L. High values mean a small Kd, low ones a large Kd. Regarding `O=C(COc1cccc2c1C(=O)N(C1CCC(=O)NC1=O)C2=O)NCCCOCCOCCOCCCNC(=O)c1cc(Oc2ccc(NC(=O)Nc3ccc(Cl)c(C(F)(F)F)c3)cc2)ccn1` (stereo not shown) [PROTAC T-S, 4-(4-(3-(4-chloro-3-(trifluoromethyl)phenyl)ureido)phenoxy)-N-(1-((2-(2,6-dioxopiperidin-3-yl)-1,3-dioxoisoindolin-4-l)oxy)-2-oxo-7,10,13-trioxa-3-azahexadecan-16-yl)picolinamide], the negative-log Kd (pKd) is 5.65.

Values taken from doi:10.1101/2020.05.06.079947v2 (biorxiv, 2020).
